The values that follow come from PMC11340618 (iScience, 2024).

The subject of the experiment is intracellular Mtb ΔptpA mutant in THP-1 cells. It is filed as cell-based, Mycobacterium tuberculosis.

In the case of `O=C(NCc1ccccn1)Nc1cc(N2CC(CCc3ccccc3)CC2=O)ccn1` (stereo not shown) [P-4423632], the “dose-dependent activity against intracellular Mtb” value was “not against a ΔptpA mutant”.
